The text below walks through data of patent US6521265B1, “Method for applying a blood clotting agent” (Biolife, L.L.C., priority 2000, dated 2003).

The test system of this assay is blood flowing from an open wound. Kind of assay: Potassium ferrate used on blood flowing from an open wound. The following applies: in vivo. From the text: The apparent chemical ferrate reaction with water found in blood is as follows:
As provided by the above compounds, a method of arresting blood and body fluid flow from an open skin wound is provided. An effective amount of any of the above salt ferrates, and preferably potassium ferrate in powder form, is applied directly onto the wound to interact with flowing blood or body fluid to accelerate its clotting.

Consider potassium ferrate, for which the “clotting of blood flowing from an open wound” value is “effectively accomplishes the accelerated clotting of blood”.
